The values that follow come from article PMC6222787, “Anti-Inflammatory Activities of Compounds Isolated from the Rhizome of Anemarrhena asphodeloides” (Molecules : A Journal of Synthetic Chemistry and Natural …, 2018).

Data set [1] relates to LPS-induced NO production in N9 microglial cells. Kind of data set: LPS-induced NO production (Griess assay). The data set is classed as cell-based, mouse. The conditions noted are these: for Nitrite: control 4.60, LPS group 31.81 μM; for Nitrite / inhibition at 25 µM / inhibition at 50 µM / % Inhibition of NO Production: mean ± S.E.M.; for inhibition at 25 µM / inhibition at 50 µM: Mus musculus, N9, 24 h. The protocol: Figure 2 Inhibitory effects of TBIII (A) and t-HL (B) in LPS-stimulated N9 microglial cells. Cells were pretreated with different concentrations of TBIII and t-HL 1 h prior to the addition of LPS (100 ng/mL) and were further incubated for 24 h. NO production was determined by using the Griess reagent. IC50 values and curve fitting were determined using Graphpad Prism (GraphPad, Avenida, CA, USA).
Accumulation of nitrite, a metabolite of NO in the culture media, was measured by Griess assay as previously reported. Briefly, cells were stimulated with 100 ng/mL of LPS for 24 h in the presence of the test compounds (0–50 μM).

The next data set in a line: in vitro. The conditions noted are these: mouse, % Cell Viability.
The test system of data set [2] is N9 microglial cells. As to conditions: mouse, 24 h.
Experimental: (§1) The N9 microglial cell line was obtained from China Cell Line Bank. The cells were grown at 37 °C in IMDM supplemented with 10% heat-inactivated FBS under a humidified atmosphere of 5% CO2. In this experiment, cells were allowed to acclimate for 24 h before treatments.
(§2) Cell viability was evaluated by the MTT reduction assay [36]. Cells were seeded in 96-well plates at a density of 2 × 10^4 cells/well and allowed to grow for 24 h before treatments. Thereafter, 100 μL medium containing various concentrations (0–50 μM) of compounds were added and incubated for another 24 h. MTT was dissolved in DD water (5 mg/mL) and 10 μL were added to each well. After 4 h, the medium was removed and 100 μL DMSO were filled in each well. The optical density was measured at 490 nm on a Flexstation 3 (Molecular Devices, Silicon Valley, CA, USA).
In data set [3] the test system is various kinds of tumor cells. Details: method as in PMID 15971131, PMID 28548219, PMID 29393481, PMID 27897231. As to conditions: cited from earlier work.
The nature of data set [4]: MTT assay for cell viability. The conditions noted are these: mouse, N9 microglial cells, % Cell Viability, 24 h, MTT, mean ± S.E.M.
Experimental: as §1, §2
The subject of data set [5] is N9 microglial cells. Kind of data set: MTT assay for cell viability. The conditions noted are these: at 25 and 50 μM.
Experimental: as §1, §2
The mark [6] stands for this setting: 25 μM compound, LPS 100 ng/mL, 24 h.
Setting [7] is: 50 μM compound, LPS 100 ng/mL, 24 h.
Setting [8] is: read-out: % Inhibition of NO Production, 25 μM compound, LPS 100 ng/mL, 24 h.
Setting [9] is: read-out: % Inhibition of NO Production, 50 μM compound, LPS 100 ng/mL, 24 h.
[10] abbreviates: 25 μM compound, LPS 100 ng/mL, 24 h, 25 µM.
Setting [11] is: 50 μM compound, LPS 100 ng/mL, 24 h, 50 µM.

Where two headings read alike, the source gives them in different places.

Experimental for in vitro: as §1, §2

In turn, `CC(CCC1(O)OC2CC3C4CCC5CC(OC6OC(CO)C(OC7OC(C)C(O)C(O)C7O)C(O)C6OC6OC(C)C(O)C(O)C6O)C(O)CC5(C)C4CCC3(C)C2C1C)COC1OC(CO)C(O)C(O)C1O` (stereo not drawn) [Compound 8, Tuberoside G] had a Nitrite in data set [1] (setting [6]) of 35.05 ± 0.68 µM. The same compound returned a Nitrite in data set [1] (setting [7]) of 27.65 ± 0.74 µM. For the same compound, in data set [1] (setting [8]), the inhibition at 25 µM is -10.8 ± 2.14%. Moreover, the inhibition at 50 µM in data set [1] (setting [9]) came to 13.2 ± 2.32%. Further, in “in vitro”, the viability at 24 h, 25 µM amounted to 113 ± 4.14% and the viability at 24 h, 50 µM turned out to be 99.3 ± 2.46%.
Take `COC1(CCC(C)COC2OC(CO)C(O)C(O)C2O)OC2CC3C4CC=C5CC(O)CC(OC6OC(C)C(O)C(OC7OCC(O)C(O)C7O)C6OC6OC(CO)C(O)C(O)C6O)C5(C)C4CCC3(C)C2C1C` (stereo not drawn) [Compound 9, Spicatoside B]: the Nitrite in data set [1] (setting [6]) worked out at 34.46 ± 0.41 µM; in data set [1] (setting [7]) it was 24.20 ± 0.29 µM. Moreover, the inhibition at 25 µM in data set [1] (setting [8]) is -8.22 ± 1.3%. In data set [1] (setting [9]), the inhibition at 50 µM amounted to 24 ± 0.9%. Besides, in “in vitro”, the viability at 24 h, 25 µM is 99.7 ± 3.13%. The viability at 24 h, 50 µM in “in vitro” is 94.3 ± 3.21%.
Regarding `CC1=C(CCC(C)COC2OC(CO)C(O)C(O)C2O)OC2CC3C4CCC5CC(OC6OC(CO)C(O)C(O)C6OC6OC(CO)C(O)C(O)C6O)C(O)CC5(C)C4CCC3(C)C12` (stereo not drawn) [Compound 10, Timosaponin D], the Nitrite in data set [1] (setting [6]) came to 29.22 ± 0.60 µM. For the same compound, the Nitrite in data set [1] (setting [7]) turned out to be 20.78 ± 2.00 µM. For the same compound, in data set [1] (setting [8]), the inhibition at 25 µM came to 8.57 ± 1.87%. Further, in data set [1] (setting [9]), the inhibition at 50 µM was 34.8 ± 6.27%. In the data set “in vitro”, the viability at 24 h, 25 µM stood at 111 ± 4.39% and the viability at 24 h, 50 µM was found to be 110 ± 2.57%.
In the case of `CC1=C(CCC(C)COC2OC(CO)C(O)C(O)C2O)OC2CC3C4CCC5CC(OC6OC(CO)C(O)C(O)C6OC6OC(CO)C(O)C(O)C6O)CCC5(C)C4CCC3(C)C12` (stereo not drawn) [Compound 12, Macrostemonoside F], the Nitrite turned out to be 19.64 ± 1.21 µM in data set [1] (setting [6]) and 11.82 ± 1.03 µM in data set [1] (setting [7]). Moreover, the “% Inhibition of NO Production” value was 38.33 ± 3.80 % in data set [1] (setting [10]) and 62.89 ± 3.22 % in data set [1] (setting [11]). In addition, the entries for the “% Cell Viability” value in the data set with N9 microglial cells [2] (25 µM) and in the data set with N9 microglial cells [2] (50 µM) were 104.74 ± 3.16% and 105.77 ± 2.84%, respectively.
With `CC1=C(CCC(C)COC2OC(CO)C(O)C(O)C2O)OC2CC3C4CCC5CC(OC6OC(CO)C(O)C(O)C6OC6OC(CO)C(O)C(O)C6O)CCC5(C)C4CCC3(C)C12` (stereo not drawn) [Compound 13, Timosaponin C], the values for the Nitrite in data set [1] (setting [6]) and in data set [1] (setting [7]) were 24.24 ± 1.32 µM and 13.36 ± 0.56 µM, respectively. Moreover, the “% Inhibition of NO Production” value in data set [1] (setting [10]) worked out at 23.94 ± 4.13%; in data set [1] (setting [11]), 58.10 ± 1.75 %. For the same compound, the “inhibitory activity on NO production (in words)” value in data set [1] (compared with compound 11) is reported as “much weaker inhibitory activity”. Further, the “% Cell Viability” value is 109.04 ± 4.85% with N9 microglial cells [2] (25 µM) and 97.19 ± 6.46% with N9 microglial cells [2] (50 µM).
`C[C@@H]1O[C@@H](O[C@H]2[C@H](OC(=O)[C@]34CCC(C)(C)C[C@H]3C3=CC[C@@H]5[C@@]6(C)C[C@H](O)[C@H](O[C@@H]7O[C@H](CO)[C@@H](O)[C@H](O)[C@H]7O)C(CO)(CO)[C@@H]6CC[C@@]5(C)[C@]3(C)C[C@H]4O)OC[C@H](O)[C@@H]2O)[C@H](O)[C@H](O)[C@H]1O[C@@H]1OC[C@@H](O)[C@H](O[C@@H]2OC[C@](O)(CO)[C@H]2O)[C@H]1O` [Compound 14, Platycodin D]: the results for the Nitrite in data set [1] (setting [6]) and in data set [1] (setting [7]) were 28.94 ± 0.40 µM and 4.29 ± 0.59 µM, respectively. Also, the inhibition at 25 µM in data set [1] (25 μM compound, LPS 100 ng/mL, 24 h, read-out: % Inhibition of NO Production) is 8.65 ± 2.24%. For the same compound, the inhibition at 50 µM in data set [1] (50 μM compound, LPS 100 ng/mL, 24 h, read-out: % Inhibition of NO Production) turned out to be 86.5 ± 2.71%. Moreover, the “cytotoxicity towards tumor cells” value in data set [3] is “significant cytotoxicity”. The viability at 24 h, 25 µM in data set [4] (25 μM compound) was 40.2 ± 9.18%. Besides, in data set [4] (50 μM compound), the viability at 24 h, 50 µM worked out at 17.9 ± 1.99%. Also, the “cell viability reduced to” value with N9 microglial cells [5] is at most 60%.
Turning to `CCC1C(OC(=O)CCC(C)COC2OC(CO)C(O)C(O)C2O)CC2C3CCC4CC(OC5OC(CO)C(O)C(O)C5OC5OC(CO)C(O)C(O)C5O)CCC4(C)C3CCC12C` (stereo not drawn) [Compound 19, Anemarnoside A], the Nitrite in data set [1] (setting [6]) amounted to 23.63 ± 1.13 µM; in data set [1] (setting [7]) it was 9.83 ± 0.30 µM. Further, the inhibition at 25 µM in data set [1] (setting [8]) is 25.2 ± 8.72%. For the same compound, the inhibition at 50 µM in data set [1] (setting [9]) came out at 66.9 ± 2.82%. In addition, the viability at 24 h, 25 µM in “in vitro” is 124 ± 3.13%. In addition, the viability at 24 h, 50 µM in the data set “in vitro” was 126 ± 3%.
